Experimental data as given in patent US7999101B2, “Cationic lipids for the transfection of nucleic acids” (Politecnico Di Milano, priority 2005, dated 2011).

Experiments:
Type in all cases: cell-based
[1] = tested on: cell line PC3 (human androgen-independent prostate carcinoma); assay: Transfection of PC3 cells with plasmid pEGFP-N1; GFP expression by cytofluorimetry 48 h later, and survival; settings: for capable of giving a significant percentage of living cells expressing the GFP protein (in words) / toxicity / cell mortality with respect to 16, 22 and 17 (in words): 5 μg pEGFP-N1
Procedure: The plasmid vector PEGFP-N1 (BD Biosciences), containing the gene encoding green fluorescent protein (GFP) has been used in the transfection tests. Due to its properties, GFP is a useful tool for monitoring “passive” gene expression: indeed, fluorescent detection in this particular system is performed by means of cytofluorimetry or by microscopy.
Transfection tests have been performed on the cell line PC3 (human androgen-independent prostate carcinoma) with the plasmid PEGFP-N1 used in quantities equal to 2.5 and 5 μg. The general experimental outline envisaged 4 hours of transfection in reduced-serum culture medium, and in the absence of antibiotics. Upon completion of transfection, the culture medium has been replaced with normal growth medium and the evaluation of GFP expression has been performed 48 hours later by means of cytofluorimetry.

[2] = tested on: normal human thyrocytes (Line 636); assay: Transfection of normal human thyrocytes (Line 636) with 16/pEGFP-N1 complexes; GFP expression and survival; settings: 16/pEGFP-N1 (5 μg)
[3] = tested on: transformed human kidney cells (Line 293); assay: Transfection of transformed human kidney cells (Line 293) with 16/pEGFP-N1 complexes; GFP expression and survival; settings: 16/pEGFP-N1 (5 μg)
[4] = 2.5 μg pEGFP-N1, 16 and 17 at CR = 6.0, commercial agents per manufacturer, at least 3 independent experiments (Table 3)
[5] = 2.5 μg pEGFP-N1, 16 and 17 at CR = 6.0, commercial agents per manufacturer, mean percentage with respect to control, at least 3 independent experiments (Table 3)
[6] = 2.5 μg pEGFP-N1, charge ratio CR = 1.5
[7] = 2.5 μg pEGFP-N1, charge ratio CR = 3.0
[8] = 2.5 μg pEGFP-N1, charge ratio CR = 6.0 (Table 1)
[9] = 5 μg pEGFP-N1, 16 and 17 at CR = 6.0, commercial agents per manufacturer, at least 3 independent experiments (Table 3)
[10] = 5 μg pEGFP-N1, 16 and 17 at CR = 6.0, commercial agents per manufacturer, mean percentage with respect to control, at least 3 independent experiments (Table 3)
[11] = 5 μg pEGFP-N1, charge ratio CR = 1.5
[12] = 5 μg pEGFP-N1, charge ratio CR = 3.0
[13] = 5 μg pEGFP-N1, charge ratio CR = 6.0 (Table 1)
[14] = CR = 6, percentage with respect to control, preliminary data
[15] = 5 μg pEGFP-N1, constant charge ratio CR = 6 (Table 2)
[16] = 5 μg pEGFP-N1, constant charge ratio CR = 6, percentage with respect to control (Table 2)

## CCCCCCCCCCCCCCNc1nc(NCCS)nc(NCCCN)n1 [Compound 16]
[1]; [4]
  GFP+ living cells: 20.5%
  Total GFP+ cells: 25.4%
[1]; [5]
  Survival: 81.0%
[1]; [6]
  GFP+ living cells: 1.18%
  Total GFP+ cells: 4.75%
[1]; 2.5 μg pEGFP-N1, charge ratio CR = 1.5, percentage with respect to control
  Survival: 71.4%
[1]; [7]
  GFP+ living cells: 4.05%
  Total GFP+ cells: 7.81%
[1]; 2.5 μg pEGFP-N1, charge ratio CR = 3.0, percentage with respect to control
  Survival: 79.8%
[1]; [8]
  GFP+ living cells: 32.40%
  Total GFP+ cells: 46.13%
[1]; 2.5 μg pEGFP-N1, charge ratio CR = 6.0, percentage with respect to control (Table 1)
  Survival: 86.3%
[1]; [9]
  GFP+ living cells: 41.14%
  Total GFP+ cells: 57%
[1]; [10]
  Survival: 58.0%
[1]; [11]
  GFP+ living cells: 1.54%
  Total GFP+ cells: 1.85%
[1]; 5 μg pEGFP-N1, charge ratio CR = 1.5, percentage with respect to control
  Survival: 100%
[1]; [12]
  GFP+ living cells: 10.6%
  Total GFP+ cells: 12.45%
[1]; 5 μg pEGFP-N1, charge ratio CR = 3.0, percentage with respect to control
  Survival: 96.0%
[1]; [13]
  GFP+ living cells: 64.6%
  Total GFP+ cells: 70.70%
[1]; 5 μg pEGFP-N1, charge ratio CR = 6.0, percentage with respect to control (Table 1)
  Survival: 64.4%
[1]; 2.5 and 5 μg pEGFP-N1
  cellular toxicity (in words): absence of any significant cellular toxicity
[1]; 2.5 and 5 μg pEGFP-N1, GFP expression 48 hours following transfection
  capacity to induce the transfection of PC3 cells (in words): significant percentage of GFP-positive cells
[1]; equal amounts of plasmid DNA
  transfection efficiency compared with Lipofectamine 2000 (in words): comparable to that of Lipofectamine 2000 only in the presence of higher quantities of plasmid DNA
[2]; [14]
  Survival: 75.3%
[2]; CR = 6, preliminary data
  GFP+ living cells: 34.3%
  Total GFP+ cells: 53.8%
[3]; [14]
  Survival: 86.8%
[3]; CR = 6, preliminary data
  GFP+ living cells: 58.3%
  Total GFP+ cells: 76.2%

## CCCCCCCCCCCCCCNc1nc(NCCS)nc(N2CCNCC2)n1 [Compound 18, 2-[4-(2-N-piperazinyl)-6-tetradecylamino-[1,3,5]triazin-2-ylamino]-ethanethiol]
[1]
  capable of giving a significant percentage of living cells expressing the GFP protein (in words): none
  toxicity / cell mortality with respect to 16, 22 and 17 (in words): significantly greater cell mortality
[1]; [15]
  GFP+ living cells: 8.4%
  Total GFP+ cells: 56.2%
[1]; [16]
  Survival: 6.3%

## NCCCNc1nc(NCCS)nc(NCc2ccccc2)n1 [Compound 20]
[1]
  capable of giving a significant percentage of living cells expressing the GFP protein (in words): none
  toxicity / cell mortality with respect to 16, 22 and 17 (in words): did not show excessive levels of toxicity
[1]; [15]
  GFP+ living cells: 0.01%
  Total GFP+ cells: 0.9%
[1]; [16]
  Survival: 74.0%

## CCCCCCNc1nc(NCCS)nc(NCCCN)n1 [Compound 21]
[1]
  capable of giving a significant percentage of living cells expressing the GFP protein (in words): none
  toxicity / cell mortality with respect to 16, 22 and 17 (in words): significantly greater cell mortality
[1]; [15]
  GFP+ living cells: 0.3%
  Total GFP+ cells: 2.1%
[1]; [16]
  Survival: 12.8%

## CCCCCCCC/C=C\CCCCCCCC(=O)OCC(C[N+](C)(C)C)OC(=O)CCCCCCC/C=C\CCCCCCCC.[Cl-] (centres unmarked) [DOTAP, reference compound]
[1]; [4]
  GFP+ living cells: 12.0%
  Total GFP+ cells: 15.8%
[1]; [5]
  Survival: 78.6%
[1]; [9]
  GFP+ living cells: 21.3%
  Total GFP+ cells: 23.5%
[1]; [10]
  Survival: 65.8%
[1]; both quantities of plasmid DNA
  percentage of transfection with respect to compounds 16 and 17 (in words): lower percentage of transfection
  toxicity with respect to compounds 16 and 17 (in words): less toxic
